From patent US10822339B2, “Pyrrolopyrimidine five-membered azacyclic derivative and application thereof” (HANGZHOU HUADONG MEDICINE GROUP BIOPHARMACEUTICAL CO. LTD, priority 2016, dated 2020) come the findings set out here.

Usually IC50 stands for the concentration needed to halve the response being measured. The AUC(0-t) is exposure summed from dosing to a finite time, without extrapolation to infinity. A higher AUC(0-t) goes with more exposure. Usually MRT inf stands for the average time that molecules of a dose stay in the body. By clearance is commonly meant a measure of how efficiently the substance is removed, as volume per time. Broadly, the Cmax is the maximum level reached in the sampled fluid or tissue. One may read the Tmax as the time at which the peak concentration occurs.

Where two headings read alike, the source gives them in different places.

A short description of data set [1]: Toxic side effects experiment, 14 days repeated dosing. The following applies: for toxic side effects: rat, in vivo; for organ tissues, blood biochemical parameters versus vehicle control group: once daily 30 mg/kg/day for 14 days. Here is the method: The toxic side effects of the compounds of the present invention (Ia and Ib) were studied. The rats were administered once daily at 30 mg/kg/day for 14 days consecutively.

Another data set concerns the target T1, hERG (Homo sapiens, UniProt Q12809).
T1 construct: expressed in transfected cells; host or cells: HEK293
As to the kind of experiment: Whole cell hERG potassium channel current blocking, automatic patch clamp. Format: cell-based. The following applies: HEK293 cells expressing hERG stably. From the text: Potassium channel current blocking percentage of whole cell hERG by the compounds of the present invention is studied using HEK293 cells expressing hERG stably and automatic patch clamp system detection method, the dose-effect relationship curve was obtained. The positive drug is Cisapride.
(Block of hERG is tested as a sign of cardiac risk.)

A short description of data set [2]: Pharmacokinetic experiments in Beagles. Format: in vivo. The following applies: single administration; for half-life: read-out: Terminal t1/2 (converted). Here is the method:
Experimental animals: Beagles, male and female; body weight: 7-9 kg;
Preparation of test samples: the compound (Ia) of the present invention was formulated into 2.5 mg/mL (for intravenous administration) and 2.0 mg/mL (for oral administration) for use. Routes of administration: oral/intravenous injection. Dosing capacity and frequency: 2 mL/kg (intravenous injection) or 5 mL/kg (oral), single administration.
Sample collection: blood was collected at the following time points: post-dose at 5 min, 15 min, 30 min, 1 hr, 2 hrs, 4 hrs, 8 hrs, and 24 hrs.
Sample analysis: The collected samples were tested using the LC-MS/MS method. The instrument model is API4000.
Pharmacokinetic data analysis: WinNolin was used to fit and calculate the obtained plasma concentration data according to the non-compartmental model method.

The test system of data set [3] is adjuvant-induced arthritis. As to the kind of experiment: Rat adjuvant-induced arthritis efficacy model. Format: in vivo. The settings on record: oral; for animal clinical scores / paw volumes: dose groups of 10 mg/kg and 15 mg/kg; for animal body weight increase versus vehicle group: treatment groups, 14 days dosing.
The target of a further data set is TYK2 (Homo sapiens, UniProt P29597). Put plainly: Enzyme activity inhibition, Caliper Mobility Shift Assay. Format: biochemical. The settings on record: read-out: Kinase inhibitory activity (IC50, nM) TYK2. The method, then:
(§1) The semi-inhibitory concentration IC50 of the compounds (the concentration of the compounds required to inhibit enzyme activity to 50%) is determined by the immobilized enzyme mixed with a specific substrate and different concentrations of the test compounds. The determination method used was a Caliper Mobility Shift Assay. The kinases determined were JAK1, JAK2, JAK3 and TYK2. The standard reference compound used was staurosporine.

In the next data set the target is T2, JAK3 (Homo sapiens, UniProt P52333).
T2 sequence (P52333 1-1124): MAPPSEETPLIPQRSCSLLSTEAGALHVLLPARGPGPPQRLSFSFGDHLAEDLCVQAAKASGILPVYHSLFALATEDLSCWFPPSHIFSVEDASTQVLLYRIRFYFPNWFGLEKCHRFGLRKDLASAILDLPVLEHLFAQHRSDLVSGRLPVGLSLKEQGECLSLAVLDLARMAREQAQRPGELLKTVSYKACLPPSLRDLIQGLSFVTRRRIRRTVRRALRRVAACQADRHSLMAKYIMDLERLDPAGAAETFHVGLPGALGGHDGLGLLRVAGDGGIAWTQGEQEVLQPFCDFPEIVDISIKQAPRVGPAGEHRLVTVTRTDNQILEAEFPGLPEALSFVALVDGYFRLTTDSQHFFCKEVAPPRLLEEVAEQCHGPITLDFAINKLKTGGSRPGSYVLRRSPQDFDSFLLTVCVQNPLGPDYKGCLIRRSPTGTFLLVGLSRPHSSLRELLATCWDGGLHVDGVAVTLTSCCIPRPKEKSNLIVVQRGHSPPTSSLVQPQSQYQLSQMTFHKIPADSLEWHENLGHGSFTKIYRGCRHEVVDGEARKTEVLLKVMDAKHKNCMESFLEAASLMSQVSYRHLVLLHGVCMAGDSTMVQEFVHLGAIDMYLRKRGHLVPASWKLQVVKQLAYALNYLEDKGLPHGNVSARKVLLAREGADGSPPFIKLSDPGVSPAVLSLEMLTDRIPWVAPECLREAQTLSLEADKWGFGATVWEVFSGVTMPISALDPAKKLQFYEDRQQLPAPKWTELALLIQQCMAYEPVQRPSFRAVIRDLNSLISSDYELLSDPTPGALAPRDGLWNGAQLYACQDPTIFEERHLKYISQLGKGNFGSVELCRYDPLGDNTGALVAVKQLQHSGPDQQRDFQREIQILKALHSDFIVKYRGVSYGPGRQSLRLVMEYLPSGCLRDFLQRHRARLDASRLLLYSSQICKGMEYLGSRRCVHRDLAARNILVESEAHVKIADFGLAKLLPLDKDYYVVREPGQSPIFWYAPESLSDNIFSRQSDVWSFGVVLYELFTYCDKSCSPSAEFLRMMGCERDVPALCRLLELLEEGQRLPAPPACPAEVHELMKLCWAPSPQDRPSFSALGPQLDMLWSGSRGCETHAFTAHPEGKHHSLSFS
Described as above. The settings on record: read-out: Kinase inhibitory activity (IC50, nM) JAK3. It counts as biochemical. Here is the method:
as §1

Another data set concerns the target JAK2 (Homo sapiens, UniProt O60674). Described as above. The following applies: for IC50: read-out: Kinase inhibitory activity (IC50, nM) JAK2. Format: biochemical. The method, then:
as §1

A further data set addresses JAK1 (Homo sapiens, UniProt P23458). Described as above. It counts as biochemical. The following applies: read-out: Kinase inhibitory activity (IC50, nM) JAK1. Here is the method:
as §1

[4] abbreviates: both sexes, beagle, dog, plasma, intravenous injection, 5 mg/kg.
Where [5] appears, read: both sexes, beagle, dog, plasma, oral, 10 mg/kg.

JAK2, sequence (O60674 whole entry): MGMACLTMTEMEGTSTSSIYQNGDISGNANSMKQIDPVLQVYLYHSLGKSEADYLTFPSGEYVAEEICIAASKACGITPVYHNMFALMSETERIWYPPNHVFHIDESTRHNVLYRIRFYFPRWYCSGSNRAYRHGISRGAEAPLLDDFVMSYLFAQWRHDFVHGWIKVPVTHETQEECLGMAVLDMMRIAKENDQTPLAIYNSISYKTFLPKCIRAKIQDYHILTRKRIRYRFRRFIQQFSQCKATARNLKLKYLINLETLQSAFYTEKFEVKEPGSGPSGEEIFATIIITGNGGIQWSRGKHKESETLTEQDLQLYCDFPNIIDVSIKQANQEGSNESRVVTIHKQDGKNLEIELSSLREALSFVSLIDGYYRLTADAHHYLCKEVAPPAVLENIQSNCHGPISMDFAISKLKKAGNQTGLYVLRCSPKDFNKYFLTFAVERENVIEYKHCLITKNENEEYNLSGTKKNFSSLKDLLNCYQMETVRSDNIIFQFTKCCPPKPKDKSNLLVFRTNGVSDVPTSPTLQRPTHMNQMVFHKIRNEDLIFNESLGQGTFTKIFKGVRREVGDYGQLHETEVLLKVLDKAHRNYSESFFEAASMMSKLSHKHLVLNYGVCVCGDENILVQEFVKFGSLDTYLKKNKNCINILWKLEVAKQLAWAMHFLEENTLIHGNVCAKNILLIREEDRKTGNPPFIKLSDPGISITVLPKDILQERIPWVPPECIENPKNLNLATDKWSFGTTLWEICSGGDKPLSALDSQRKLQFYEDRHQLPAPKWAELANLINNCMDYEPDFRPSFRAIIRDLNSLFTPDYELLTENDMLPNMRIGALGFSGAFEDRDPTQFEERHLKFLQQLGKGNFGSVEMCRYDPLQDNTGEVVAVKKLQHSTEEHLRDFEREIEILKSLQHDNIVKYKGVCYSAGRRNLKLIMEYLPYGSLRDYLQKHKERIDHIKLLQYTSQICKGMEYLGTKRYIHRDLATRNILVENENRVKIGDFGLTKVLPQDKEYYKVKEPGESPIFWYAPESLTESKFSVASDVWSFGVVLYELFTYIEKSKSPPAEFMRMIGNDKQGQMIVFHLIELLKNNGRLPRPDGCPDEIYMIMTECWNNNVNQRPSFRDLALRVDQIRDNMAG
T1 sequence (Q12809 whole entry): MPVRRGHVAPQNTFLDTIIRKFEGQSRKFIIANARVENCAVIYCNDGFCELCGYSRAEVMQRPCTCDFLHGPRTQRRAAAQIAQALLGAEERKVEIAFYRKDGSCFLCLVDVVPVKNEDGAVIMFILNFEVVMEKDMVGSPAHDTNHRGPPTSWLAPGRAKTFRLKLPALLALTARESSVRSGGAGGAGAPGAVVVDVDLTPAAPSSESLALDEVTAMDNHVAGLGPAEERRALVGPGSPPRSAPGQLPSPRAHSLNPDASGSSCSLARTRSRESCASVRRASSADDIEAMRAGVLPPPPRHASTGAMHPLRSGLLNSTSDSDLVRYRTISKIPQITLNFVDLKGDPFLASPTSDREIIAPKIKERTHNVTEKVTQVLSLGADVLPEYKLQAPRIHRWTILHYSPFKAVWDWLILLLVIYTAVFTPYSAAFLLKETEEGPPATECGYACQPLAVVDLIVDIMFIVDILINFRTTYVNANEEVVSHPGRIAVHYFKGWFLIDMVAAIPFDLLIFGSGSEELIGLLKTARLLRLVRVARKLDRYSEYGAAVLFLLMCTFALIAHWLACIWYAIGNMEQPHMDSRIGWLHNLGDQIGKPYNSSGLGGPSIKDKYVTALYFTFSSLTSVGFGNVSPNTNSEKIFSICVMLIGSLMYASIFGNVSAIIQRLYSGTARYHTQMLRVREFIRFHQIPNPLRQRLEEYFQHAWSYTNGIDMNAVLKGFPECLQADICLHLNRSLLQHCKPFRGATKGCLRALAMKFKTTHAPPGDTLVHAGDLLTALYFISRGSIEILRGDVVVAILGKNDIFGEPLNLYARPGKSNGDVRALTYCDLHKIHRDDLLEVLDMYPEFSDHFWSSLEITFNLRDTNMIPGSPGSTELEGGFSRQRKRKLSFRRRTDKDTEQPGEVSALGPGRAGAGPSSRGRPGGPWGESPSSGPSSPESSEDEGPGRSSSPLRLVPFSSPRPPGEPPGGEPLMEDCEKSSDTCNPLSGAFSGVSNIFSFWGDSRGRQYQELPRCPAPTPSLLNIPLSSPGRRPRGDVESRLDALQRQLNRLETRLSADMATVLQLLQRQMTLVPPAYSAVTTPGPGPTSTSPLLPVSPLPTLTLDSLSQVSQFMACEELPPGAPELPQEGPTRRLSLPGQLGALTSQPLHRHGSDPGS
TYK2, sequence (P29597 whole entry): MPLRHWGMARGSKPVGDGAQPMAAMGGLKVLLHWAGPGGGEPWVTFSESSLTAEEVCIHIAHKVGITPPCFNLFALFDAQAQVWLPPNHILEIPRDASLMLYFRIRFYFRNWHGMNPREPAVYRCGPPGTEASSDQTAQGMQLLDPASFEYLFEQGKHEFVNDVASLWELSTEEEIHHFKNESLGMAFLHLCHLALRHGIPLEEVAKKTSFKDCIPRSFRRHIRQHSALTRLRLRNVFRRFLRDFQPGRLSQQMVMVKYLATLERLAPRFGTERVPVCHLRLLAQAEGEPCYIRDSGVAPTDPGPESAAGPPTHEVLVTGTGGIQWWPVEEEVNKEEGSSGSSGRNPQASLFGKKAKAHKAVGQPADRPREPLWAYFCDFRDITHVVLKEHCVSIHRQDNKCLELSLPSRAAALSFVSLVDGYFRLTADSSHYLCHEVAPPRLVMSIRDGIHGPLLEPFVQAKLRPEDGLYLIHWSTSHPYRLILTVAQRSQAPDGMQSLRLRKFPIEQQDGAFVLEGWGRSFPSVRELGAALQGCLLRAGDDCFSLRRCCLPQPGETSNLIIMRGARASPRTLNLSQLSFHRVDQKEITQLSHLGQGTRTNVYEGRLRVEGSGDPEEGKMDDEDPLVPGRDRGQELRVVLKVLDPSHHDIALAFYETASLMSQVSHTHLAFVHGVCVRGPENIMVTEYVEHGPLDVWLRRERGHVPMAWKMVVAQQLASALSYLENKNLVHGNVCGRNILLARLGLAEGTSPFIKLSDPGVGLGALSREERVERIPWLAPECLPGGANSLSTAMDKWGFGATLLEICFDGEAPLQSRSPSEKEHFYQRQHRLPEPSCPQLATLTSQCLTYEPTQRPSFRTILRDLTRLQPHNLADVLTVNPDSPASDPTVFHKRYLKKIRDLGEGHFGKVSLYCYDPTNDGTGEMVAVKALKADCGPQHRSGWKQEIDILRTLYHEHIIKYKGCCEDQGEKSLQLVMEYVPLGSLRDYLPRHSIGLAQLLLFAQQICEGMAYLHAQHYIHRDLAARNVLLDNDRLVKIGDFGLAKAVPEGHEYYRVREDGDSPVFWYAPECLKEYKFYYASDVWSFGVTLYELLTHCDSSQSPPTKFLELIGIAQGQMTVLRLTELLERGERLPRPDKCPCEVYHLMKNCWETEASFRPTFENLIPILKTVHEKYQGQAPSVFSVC
JAK1, sequence (P23458 whole entry): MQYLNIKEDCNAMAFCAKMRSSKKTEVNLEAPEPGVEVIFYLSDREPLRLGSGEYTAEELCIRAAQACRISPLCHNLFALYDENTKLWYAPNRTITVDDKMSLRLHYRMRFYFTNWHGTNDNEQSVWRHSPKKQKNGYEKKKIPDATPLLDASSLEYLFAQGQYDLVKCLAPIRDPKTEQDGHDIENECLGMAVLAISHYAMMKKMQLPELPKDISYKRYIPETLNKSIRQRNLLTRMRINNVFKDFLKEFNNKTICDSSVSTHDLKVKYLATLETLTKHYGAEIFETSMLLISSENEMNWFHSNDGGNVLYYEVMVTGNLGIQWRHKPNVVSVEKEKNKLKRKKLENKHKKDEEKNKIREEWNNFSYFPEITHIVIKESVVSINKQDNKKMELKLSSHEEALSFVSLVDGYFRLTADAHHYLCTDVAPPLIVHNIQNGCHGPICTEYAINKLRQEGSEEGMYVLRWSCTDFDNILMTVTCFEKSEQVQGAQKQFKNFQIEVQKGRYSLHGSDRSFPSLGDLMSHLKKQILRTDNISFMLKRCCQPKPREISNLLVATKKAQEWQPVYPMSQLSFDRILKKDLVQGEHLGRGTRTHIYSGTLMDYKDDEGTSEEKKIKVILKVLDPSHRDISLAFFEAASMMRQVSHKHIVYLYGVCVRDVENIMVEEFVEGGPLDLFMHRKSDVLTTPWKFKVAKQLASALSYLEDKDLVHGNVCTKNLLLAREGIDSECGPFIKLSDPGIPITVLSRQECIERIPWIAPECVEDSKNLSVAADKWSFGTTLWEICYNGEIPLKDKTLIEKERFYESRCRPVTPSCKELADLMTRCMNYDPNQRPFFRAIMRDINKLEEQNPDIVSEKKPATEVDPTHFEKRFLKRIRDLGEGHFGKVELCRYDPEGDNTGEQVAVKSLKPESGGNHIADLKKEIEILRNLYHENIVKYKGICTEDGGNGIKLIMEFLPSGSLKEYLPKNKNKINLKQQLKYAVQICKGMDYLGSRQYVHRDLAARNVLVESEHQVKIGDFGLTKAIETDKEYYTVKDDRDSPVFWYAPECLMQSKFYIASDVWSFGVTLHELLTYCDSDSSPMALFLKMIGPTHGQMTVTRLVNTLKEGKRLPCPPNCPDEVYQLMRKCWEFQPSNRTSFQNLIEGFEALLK

As to `CCS(=O)(=O)N1CC(CC#N)(n2cc(-c3ncnc4[nH]ccc34)cn2)C1` [Baricitinib, reference compound], the toxic side effects result in data set [1] (30 mg/kg/day) is “certain toxic side effects”. The “thymus and spleen tissues size” value in data set [1] (rats, 30 mg/kg/day, same experiment) is listed as “significantly reduced (a quarter of the normal size)”.
Regarding `CCS(=O)(=O)N1CCC(CC#N)(n2cc(-c3ncnc4[nH]ccc34)cn2)CC1` [Compound of formula Ia], at hERG, the IC50 was greater than 30000 nM. Moreover, in data set [2] (setting [4]), the AUC(0-t) was 10900 ng·h/mL, the MRT inf was 4.16 h, the clearance is 7.5 mL/min/kg and the half-life is 4.78 h. For the same compound, in data set [2] (both sexes, beagle, dog, plasma, intravenous injection, 5 mg/kg, read-out: Vss), the Vd was determined as 1.85 L/kg. Besides, in data set [2] (setting [5]), the AUC(0-t) was found to be 10600 ng·h/mL, the Cmax was 2500 ng/mL, the Tmax was 0.25 h and the half-life is 5.79 h. In data set [2] (oral, 10 mg/kg), the F was determined as 49.4%. Besides, in data set [3], the animal clinical scores entry was “almost close to the normal group”, the paw volumes result was “almost close to the normal group” and the “animal body weight increase versus vehicle group” value was “greater increases in animal body weight than that of the vehicle group”. Besides, in data set [1] (30 mg/kg/day), the toxic side effects entry was “no obvious toxic side effects”. Besides, the “organ tissues, blood biochemical parameters versus vehicle control group” value in data set [1] (rats) is listed as “no significant difference”. For the same compound, at TYK2, the half-inhibitory concentration (IC50) is 7.3 nM. In addition, the IC50 on JAK3 is 27 nM. In addition, at JAK2, the “inhibitory effects on JAK2 kinase” value is “very strong inhibitory effects” and the IC50 is 0.2 nM.
For `CCS(=O)(=O)N1CCC(CC#N)(n2ccc(-c3ncnc4[nH]ccc34)c2)CC1` [Compound of formula Ib], at hERG, the IC50 was greater than 30000 nM. Moreover, in data set [3], the animal clinical scores result is “almost close to the normal group”, the paw volumes result is reported as “almost close to the normal group” and the “animal body weight increase versus vehicle group” value is recorded as “greater increases in animal body weight than that of the vehicle group”. Further, the toxic side effects result in data set [1] (30 mg/kg/day) was “no obvious toxic side effects”. Further, the “organ tissues, blood biochemical parameters versus vehicle control group” value in data set [1] (rats) is recorded as “no significant difference”. On JAK2, the “inhibitory effects on JAK2 kinase” value is “very strong inhibitory effects” and the IC50 was found to be 0.4 nM. The selective inhibitory activities entry at JAK2 (JAK2 versus the other kinases tested) is recorded as “good selective inhibitory activities”. Also, the IC50 at JAK1 was 31 nM.
